This passage reports LD50 results from US20160324152A1, “Compositions And Methods For Killing And/Or Immobilizing Insects” (The United States of America, as represented by the …, priority 2015, published 2016).

The test system of the experiment is Solenopsis invicta workers. The following applies: topical. The protocol: Topical Bioassay: Mortalities of S. invicta workers after topical treatment with Ethal TDA surfactants were determined. For ease of handling and obtaining uniform body weight, only large workers were used in the bioassay. Acetone was used as a solvent. The solution (10% w/v) was applied with a 0.779 μl capillary tube. All surfactants were tested at a concentration of 77.9 μg/ant. In the control, ants were only treated with 0.779 μl acetone. Treated ants were placed in a 30-ml capped cup at room temperature (˜23° C.) and dead ants were counted at 24 h. Three colonies were originally tested. There were 3-6 replicates for each colony. A single replicate consisted of 17 to 20 ants. In order to assess the mortality at 48 h, another three colonies were tested. For these three colonies, dead ants were counted at both 24 h and 48 h. Mortalities were adjusted using Abbott's formula (Abbott, W. S., J. Econ. Entomol., 18: 265-267 (1925)) before being used in statistical analysis. For analyzing 24 h mortality, data for all six colonies were used.
We also tested the toxicity of piperonyl butoxide (PBO) against red imported fire ants. […] Topical bioassay as described above was used: Mortalities of S. invicta workers after topical treatment with PBO were determined. […] Treated ants were placed in a 30-ml capped cup at room temperature (˜23° C.) and dead ants were counted at 24 h. […]

Read-outs that look alike come from different tables or passages of the source.

On to `CCCCCCCCCCCC(C)=O` [2-tridecanone], for which the LD50 is, setting by setting: (colony 288, PBO 0 μg/ant) 18.96 μg/ant; (colony 295, PBO 0 μg/ant) 22.82 μg/ant.
